Test systems include LOX IMVI; MCF7; SNB-75; 786-0; NCI/ADR-RES; PC-3; HL-60; NCI-H23; RPMI-8226; HOP-62; HCC 2998; MDA-MB-231; NCI-H460; MDA-N; SK-MEL-2; HCT-116; T47D; HT-29; NCI-H522.
Holding throughout (assay): NCI anticancer screen, dose series, 48 h

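The compound was tested at five concentrations on cells cultured in 96-well plates, with a 48-hour exposure period. GI50 = concentration required for 50% inhibition of growth.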 Activity calls are given as the source filed them. Rule as the data show it: active = GI50 up to about 1.1 µM and inactive = higher.

Take `Cc1c(C#N)c2nnn(-c3ccccc3)c(=O)n2c1-c1ccccc1`: the GI50 in the experiment with LOX IMVI is 4.12 µM (inactive); with MCF7, 2.39 µM (inactive); with SNB-75 it was 2.95 µM (inactive); in the experiment with 786-0 it was 1.67 µM (inactive); in the experiment with NCI/ADR-RES it was 1.12 µM (active); in the experiment on PC-3 it was 1.43 µM (inactive). In addition, the GI50 is 0.376 µM (active) in the experiment on HL-60; 5.43 µM (inactive) with NCI-H23; 1.24 µM (inactive) in the experiment on RPMI-8226; 4.48 µM (inactive) in the experiment with HOP-62; 3.34 µM (inactive) with HCC 2998; 12.3 µM (inactive) with MDA-MB-231. For the same compound, the GI50 in the experiment on NCI-H460 was 1.92 µM (inactive); in the experiment on MDA-N, 0.179 µM (active); in the experiment with SK-MEL-2 it was 4.53 µM (inactive); in the experiment on HCT-116, 0.619 µM (active); in the experiment with T47D, 4.18 µM (inactive).

Regarding `Cc1csc2n(C)c(=O)c3ccccc3[n+]12`, the GI50 in the experiment on LOX IMVI, with MCF7, in the experiment on 786-0, in the experiment with NCI/ADR-RES, in the experiment with PC-3 and in the experiment with HL-60 was > 100 µM (inactive) in each case. Further, the GI50 with NCI-H23, in the experiment on RPMI-8226, with HOP-62, in the experiment on HCC 2998, with MDA-MB-231 and with NCI-H460 was > 100 µM (inactive) throughout. The GI50 in the experiment with HT-29, in the experiment on NCI-H522, with MDA-N, with SK-MEL-2, in the experiment on HCT-116 and with T47D was > 100 µM (inactive) in each case.

As for `CCN(CC)Cc1ccccc1CC(=O)N1c2ccccc2C(=O)Nc2cccnc21`, the GI50 in the experiment with LOX IMVI is > 100 µM (inactive); with MCF7, 41.2 µM (inactive); in the experiment on 786-0, 62.2 µM (inactive); with NCI/ADR-RES it was 59.6 µM (inactive); with PC-3, > 100 µM (inactive); with HL-60, 46 µM (inactive). Further, the GI50 in the experiment with NCI-H23 was > 100 µM (inactive); with RPMI-8226, > 100 µM (inactive); in the experiment on HOP-62, 64 µM (inactive); with HCC 2998, > 100 µM (inactive); with MDA-MB-231, > 100 µM (inactive); with NCI-H460 it was > 100 µM (inactive). Moreover, the GI50 with HT-29 was > 100 µM (inactive); in the experiment with NCI-H522, > 100 µM (inactive); with MDA-N, > 100 µM (inactive); in the experiment on SK-MEL-2, > 100 µM (inactive); in the experiment with HCT-116 it was 38.8 µM (inactive); with T47D it was > 100 µM (inactive).

In the case of `CCCCCCCCCc1c(Cl)nc(Cl)nc1Cl`, the GI50 is 1.95 µM (inactive) in the experiment with LOX IMVI; 18.4 µM (inactive) in the experiment on MCF7; 15 µM (inactive) in the experiment on SNB-75; 13.9 µM (inactive) in the experiment on 786-0; 18.8 µM (inactive) in the experiment on NCI/ADR-RES; 15.7 µM (inactive) with PC-3. For the same compound, the GI50 in the experiment on HL-60 was 5.05 µM (inactive); with NCI-H23 it was 9.62 µM (inactive); with RPMI-8226, 14.6 µM (inactive); with HOP-62, 22.5 µM (inactive); in the experiment on HCC 2998, 3.74 µM (inactive); in the experiment on MDA-MB-231, 12.3 µM (inactive). Further, the GI50 in the experiment with NCI-H460 is 18.2 µM (inactive); with HT-29, 17.5 µM (inactive); in the experiment with NCI-H522 it was 3.67 µM (inactive); with MDA-N, 14.7 µM (inactive); in the experiment with HCT-116, 14.5 µM (inactive); in the experiment with T47D, 10.1 µM (inactive).

For `O=C(Nc1cc(Cl)c(I)c(Cl)c1)C(F)(F)F`, the GI50 with MCF7 was 38.4 µM (inactive); with SNB-75 it was 20.8 µM (inactive); in the experiment with 786-0 it was 29 µM (inactive); in the experiment with NCI/ADR-RES, 34.8 µM (inactive); with PC-3 it was 31.1 µM (inactive); in the experiment with HL-60, 19.2 µM (inactive). In addition, the GI50 in the experiment on NCI-H23 is 26.2 µM (inactive); with RPMI-8226, 31.1 µM (inactive); in the experiment on HOP-62 it was 31.2 µM (inactive); with HCC 2998 it was 20 µM (inactive); in the experiment with MDA-MB-231, 30.1 µM (inactive); in the experiment with NCI-H460 it was 27.1 µM (inactive). The GI50 with HT-29 is 19.8 µM (inactive); with NCI-H522 it was 21.7 µM (inactive); in the experiment on MDA-N, 35.8 µM (inactive); with HCT-116, 24.5 µM (inactive); with T47D it was 25.8 µM (inactive).

For `COC(=O)C(CCSC)NC(=O)CNC(=O)CSc1nnc(COc2ccc(Cl)cc2)n1-c1ccccc1` (stereo not given), the GI50 is 11.6 µM (inactive) with LOX IMVI; 17.9 µM (inactive) in the experiment with MCF7; 19.1 µM (inactive) in the experiment on SNB-75; 16 µM (inactive) with 786-0; 82.2 µM (inactive) with NCI/ADR-RES; 16.6 µM (inactive) in the experiment with PC-3. The GI50 in the experiment on HL-60 was 19.3 µM (inactive); with NCI-H23, 16.6 µM (inactive); in the experiment on RPMI-8226, 22.6 µM (inactive); in the experiment on HOP-62, 17.1 µM (inactive); in the experiment with HCC 2998, 14 µM (inactive); in the experiment with MDA-MB-231, 16 µM (inactive). Also, the GI50 was 17.5 µM (inactive) with NCI-H460; 17.7 µM (inactive) with HT-29; 18.6 µM (inactive) in the experiment on MDA-N; 15.4 µM (inactive) with SK-MEL-2; 16.9 µM (inactive) in the experiment with HCT-116; 18.4 µM (inactive) with T47D.

As for `COC(=O)[C@H](Cc1c[nH]c2ccccc12)NC(=O)c1ccc(CNC(=O)/C=C/c2cccc(Oc3ccccc3)c2)cc1`, the GI50 with MCF7 was > 100 µM (inactive); in the experiment on SNB-75, 79.1 µM (inactive); in the experiment on 786-0 it was > 100 µM (inactive); in the experiment on NCI/ADR-RES it was > 100 µM (inactive); in the experiment on PC-3 it was > 100 µM (inactive); in the experiment on NCI-H23, 52.6 µM (inactive). For the same compound, the GI50 is 62.4 µM (inactive) in the experiment with RPMI-8226; > 100 µM (inactive) with HOP-62; 89.9 µM (inactive) with HCC 2998; > 100 µM (inactive) in the experiment on MDA-MB-231; 83 µM (inactive) in the experiment on NCI-H460; > 100 µM (inactive) with HT-29. Further, the GI50 with MDA-N is 5.38 µM (inactive); in the experiment with SK-MEL-2, 18.9 µM (inactive); in the experiment on HCT-116, > 100 µM (inactive); in the experiment on T47D, > 100 µM (inactive).

In the case of `O=S(=O)(CCC[C@H]1[C@@H](CCOCc2ccccc2)C2CCCN1O2)c1ccccc1` (stereo not given in full), the GI50 with MCF7, with SNB-75, in the experiment on 786-0, with NCI/ADR-RES, in the experiment with PC-3 and with NCI-H23 was > 100 µM (inactive) throughout. For the same compound, the GI50 with HOP-62, in the experiment with HCC 2998, in the experiment with MDA-MB-231, with NCI-H460, in the experiment with HT-29 and with NCI-H522 was > 100 µM (inactive) in each case. Also, the GI50 with MDA-N is > 100 µM (inactive); in the experiment on HCT-116 it was > 100 µM (inactive); with T47D it was 59.2 µM (inactive).

`COc1ccc(-n2c(SC(CN3CCOCC3)CN3CCCC3=O)nc3ccccc3c2=O)cc1` (stereo not given): the GI50 in the experiment on MCF7 is > 100 µM (inactive); with SNB-75, 70.8 µM (inactive); in the experiment with 786-0 it was > 100 µM (inactive); in the experiment with NCI/ADR-RES it was > 100 µM (inactive); in the experiment on PC-3, > 100 µM (inactive); in the experiment on HL-60 it was 85.9 µM (inactive). The GI50 in the experiment on NCI-H23 is 96.4 µM (inactive); with RPMI-8226, > 100 µM (inactive); in the experiment with HCC 2998, > 100 µM (inactive); in the experiment on MDA-MB-231, > 100 µM (inactive); with NCI-H460, > 100 µM (inactive); in the experiment with HT-29 it was > 100 µM (inactive). Besides, the GI50 in the experiment with NCI-H522, in the experiment with MDA-N, with SK-MEL-2, in the experiment with HCT-116 and in the experiment on T47D was > 100 µM (inactive) in each case.

For `CCN(CC)CCO/N=C1/C=C2CCC3C(CC[C@@]4(C)C3CC[C@]4(C)O)[C@@]2(C)CC1` (stereo not given in full), the GI50 in the experiment with LOX IMVI was 4.1 µM (inactive); in the experiment with MCF7, 3.95 µM (inactive); with SNB-75, 2.89 µM (inactive); with 786-0 it was 3.69 µM (inactive); in the experiment on NCI/ADR-RES, 1.96 µM (inactive); in the experiment on PC-3, 4.6 µM (inactive). For the same compound, the GI50 with NCI-H23 is 6.75 µM (inactive); with RPMI-8226, 4.28 µM (inactive); in the experiment with HOP-62 it was 4.06 µM (inactive); with HCC 2998, 5.22 µM (inactive); with MDA-MB-231, 14.1 µM (inactive); in the experiment with NCI-H460, 3.41 µM (inactive). Moreover, the GI50 in the experiment with HT-29 is 1.82 µM (inactive); with NCI-H522, 2.16 µM (inactive); in the experiment on MDA-N, 2.49 µM (inactive); with SK-MEL-2, 11.2 µM (inactive); in the experiment on HCT-116, 4.21 µM (inactive); with T47D, 7.59 µM (inactive).

Regarding `COc1ccc(C(=O)/C=C/c2ccc(Oc3cc(C(=O)/C=C/c4ccc(O)cc4)c(O)cc3OC)cc2)c(O)c1` [RHUSCHALCONE I], the GI50 is 2.27 µM (inactive) with LOX IMVI; 4.41 µM (inactive) with MCF7; 5.27 µM (inactive) with SNB-75; 2.51 µM (inactive) in the experiment with 786-0; 3.24 µM (inactive) with NCI/ADR-RES; 4.84 µM (inactive) with PC-3. The GI50 with HL-60 was 3.08 µM (inactive); with NCI-H23 it was 2.72 µM (inactive); with RPMI-8226, 1.85 µM (inactive); in the experiment with HOP-62, 4.83 µM (inactive); in the experiment with MDA-MB-231, 3.63 µM (inactive); with NCI-H460, 4.33 µM (inactive). Further, the GI50 in the experiment with HT-29 was 2.23 µM (inactive); with NCI-H522, 2.81 µM (inactive); with MDA-N it was 3.48 µM (inactive); with SK-MEL-2, 8.57 µM (inactive); in the experiment on HCT-116, 1.87 µM (inactive); in the experiment on T47D it was 4.99 µM (inactive).

The record behind these values is ChEMBL document CHEMBL1201862, “PubChem BioAssay data set” (2004).
